{
  "source": "ChEMBL document CHEMBL4622979",
  "about": "“Non-rigid Diarylmethyl Analogs of Baloxavir as Cap-Dependent Endonuclease Inhibitors of Influenza Viruses” (J Med Chem, 2020)",
  "key": {"[1]": {"assay": "Elimination rate constant in CD1 mouse blood assessed as baloxavir acid level at 15 mg/kg, po administered as single dose measured up to 24 hrs by LC-MS/MS analysis", "assay_type": "ADME, organism-based", "details": "in vivo"}, "[2]": {"assay": "AUCinfinity in CD1 mouse blood assessed as baloxavir acid level at 15 mg/kg, po administered as single dose measured up to 24 hrs by LC-MS/MS analysis", "assay_type": "ADME, organism-based", "design": "dose 15 mg/kg, time infinity, route oral", "details": "in vivo"}, "[3]": {"assay": "AUCinfinity in CD1 mouse liver assessed as baloxavir acid level at 15 mg/kg, po administered as single dose measured up to 24 hrs by LC-MS/MS analysis", "assay_type": "ADME, organism-based", "design": "dose 15 mg/kg, route oral, time infinity", "details": "in vivo"}, "[4]": {"assay": "Elimination rate constant in CD1 mouse kidney assessed as baloxavir acid level at 15 mg/kg, po administered as single dose measured up to 24 hrs by LC-MS/MS analysis", "assay_type": "ADME, organism-based", "details": "in vivo"}, "[5]": {"assay": "MRTlast in CD1 mouse kidney assessed as baloxavir acid level at 15 mg/kg, po administered as single dose measured up to 24 hrs by LC-MS/MS analysis", "assay_type": "ADME, organism-based", "details": "in vivo"}, "[6]": {"assay": "Ratio of AUClast in CD1 mouse kidney to plasma assessed as baloxavir acid level at 15 mg/kg, po administered as single dose measured up to 24 hrs by LC-MS/MS analysis", "assay_type": "ADME, organism-based", "details": "other tissue"}, "[7]": {"assay": "MRTlast in CD1 mouse heart assessed as baloxavir acid level at 15 mg/kg, po administered as single dose measured up to 24 hrs by LC-MS/MS analysis", "assay_type": "ADME, organism-based", "details": "in vivo"}, "[8]": {"assay": "Half life in CD1 mouse lung assessed as baloxavir acid level at 15 mg/kg, po administered as single dose measured up to 24 hrs by LC-MS/MS analysis", "assay_type": "ADME, organism-based", "details": "in vivo"}, "[9]": {"assay": "Tmax in CD1 mouse lung assessed as baloxavir acid level at 15 mg/kg, po administered as single dose measured up to 24 hrs by LC-MS/MS analysis", "assay_type": "ADME, organism-based", "details": "in vivo"}, "[10]": {"assay": "Ratio of AUClast in CD1 mouse lung to plasma assessed as baloxavir acid level at 15 mg/kg, po administered as single dose measured up to 24 hrs by LC-MS/MS analysis", "assay_type": "ADME, organism-based", "details": "other tissue"}, "[11]": {"assay": "AUClast in CD1 mouse small intestine assessed as baloxavir acid level at 15 mg/kg, po administered as single dose measured up to 24 hrs by LC-MS/MS analysis", "assay_type": "ADME, organism-based", "details": "in vivo"}, "[12]": {"assay": "MRTlast in CD1 mouse small intestine assessed as baloxavir acid level at 15 mg/kg, po administered as single dose measured up to 24 hrs by LC-MS/MS analysis", "assay_type": "ADME, organism-based", "details": "in vivo"}, "[13]": {"assay": "AUClast in CD1 mouse brain assessed as baloxavir acid level at 15 mg/kg, po administered as single dose measured up to 24 hrs by LC-MS/MS analysis", "assay_type": "ADME, organism-based", "details": "in vivo"}, "[14]": {"assay": "Half life in CD1 mouse spleen assessed as baloxavir acid level at 15 mg/kg, po administered as single dose measured up to 24 hrs by LC-MS/MS analysis", "assay_type": "ADME, organism-based", "details": "in vivo"}, "[15]": {"assay": "Tmax in CD1 mouse spleen assessed as baloxavir acid level at 15 mg/kg, po administered as single dose measured up to 24 hrs by LC-MS/MS analysis", "assay_type": "ADME, organism-based", "details": "in vivo"}, "[16]": {"assay": "Cytotoxicity against human PBMC cells assessed as reduction in cell viability by ATP bioluminescence assay", "assay_type": "cell-based"}, "[17]": {"assay": "Cytotoxicity against human HepG2 cells assessed as reduction in cell viability measured after 24 hrs in presence of galactose by MTT assay", "assay_type": "cell-based"}, "[18]": {"assay": "Selectivity ratio of CC50 for human HepG2 cells assessed as reduction in cell viability measured after 24 hrs in presence of glucose to CC50 for human HepG2 cells assessed as reduction in cell viability measured after 24 hrs in presence of galactose", "assay_type": "cell-based"}, "[19]": {"assay": "Acute toxicity in CD1 mouse assessed as effect on kidney at 2000 mg/kg, po measured after 2 weeks by macroscopic analysis", "assay_type": "organism-based", "details": "in vivo, 336 h"}, "[20]": {"assay": "Acute toxicity in CD1 mouse assessed as effect on spleen at 2000 mg/kg, po measured after 2 weeks by macroscopic analysis", "assay_type": "organism-based", "details": "in vivo, 336 h"}, "[21]": {"assay": "AUClast in CD1 mouse lung assessed as (12aR)-12-(Diphenylmethyl)-7-hydroxy-3,4,12,12a-tetrahydro-1H-[1,4]oxazino[3,4-c]pyrido[2,1-f ][1,2,4]triazine-6,8-dione level at 15 mg/kg, po administered as single dose by LC-MS/MS analysis", "assay_type": "ADME, organism-based", "details": "in vivo"}, "[22]": {"assay": "Tmax in CD1 mouse blood assessed as (12aR)-12-(Diphenylmethyl)-7-hydroxy-3,4,12,12a-tetrahydro-1H-[1,4]oxazino[3,4-c]pyrido[2,1-f ][1,2,4]triazine-6,8-dione level at 15 mg/kg, po administered as single dose measured up to 24 hrs by LC-MS/MS analysis", "assay_type": "ADME, organism-based", "details": "in vivo"}, "[23]": {"assay": "MRTlast in CD1 mouse liver assessed as (12aR)-12-(Diphenylmethyl)-7-hydroxy-3,4,12,12a-tetrahydro-1H-[1,4]oxazino[3,4-c]pyrido[2,1-f ][1,2,4]triazine-6,8-dione level at 15 mg/kg, po administered as single dose measured up to 24 hrs by LC-MS/MS analysis", "assay_type": "ADME, organism-based", "details": "in vivo"}, "[24]": {"assay": "AUCinfinity in CD1 mouse heart assessed as (12aR)-12-(Diphenylmethyl)-7-hydroxy-3,4,12,12a-tetrahydro-1H-[1,4]oxazino[3,4-c]pyrido[2,1-f ][1,2,4]triazine-6,8-dione level at 15 mg/kg, po administered as single dose measured up to 24 hrs by LC-MS/MS analysis", "assay_type": "ADME, organism-based", "design": "dose 15 mg/kg, time infinity, route oral", "details": "in vivo"}, "[25]": {"assay": "Elimination rate constant in CD1 mouse trachea assessed as (12aR)-12-(Diphenylmethyl)-7-hydroxy-3,4,12,12a-tetrahydro-1H-[1,4]oxazino[3,4-c]pyrido[2,1-f ][1,2,4]triazine-6,8-dione level at 15 mg/kg, po administered as single dose measured up to 24 hrs by LC-MS/MS analysis", "assay_type": "ADME, organism-based", "details": "in vivo"}, "[26]": {"assay": "AUCinfinity in CD1 mouse trachea assessed as (12aR)-12-(Diphenylmethyl)-7-hydroxy-3,4,12,12a-tetrahydro-1H-[1,4]oxazino[3,4-c]pyrido[2,1-f ][1,2,4]triazine-6,8-dione level at 15 mg/kg, po administered as single dose measured up to 24 hrs by LC-MS/MS analysis", "assay_type": "ADME, organism-based", "design": "dose 15 mg/kg, route oral, time infinity", "details": "in vivo"}, "[27]": {"assay": "Ratio of AUClast in CD1 mouse small intestine to plasma assessed as (12aR)-12-(Diphenylmethyl)-7-hydroxy-3,4,12,12a-tetrahydro-1H-[1,4]oxazino[3,4-c]pyrido[2,1-f ][1,2,4]triazine-6,8-dione level at 15 mg/kg, po administered as single dose measured up to 24 hrs by LC-MS/MS analysis", "assay_type": "ADME, organism-based", "details": "other tissue"}, "[28]": {"assay": "Elimination rate constant in CD1 mouse brain assessed as (12aR)-12-(Diphenylmethyl)-7-hydroxy-3,4,12,12a-tetrahydro-1H-[1,4]oxazino[3,4-c]pyrido[2,1-f ][1,2,4]triazine-6,8-dione level at 15 mg/kg, po administered as single dose measured up to 24 hrs by LC-MS/MS analysis", "assay_type": "ADME, organism-based", "details": "in vivo"}, "[29]": {"assay": "Stability in rat plasma assessed as parent compound remaining at 1 uM measured after 4 hrs by LC-MS/MS analysis", "assay_type": "ADME, cell-free", "details": "read-out: Stability"}, "[30]": {"assay": "Ratio of free drug level in CD1 mouse blood assessed as (12aR)-12-(Diphenylmethyl)-7-hydroxy-3,4,12,12a-tetrahydro-1H-[1,4]oxazino[3,4-c]pyrido[2,1-f ][1,2,4]triazine-6,8-dione level at 20 mg/kg, po to EC50 for antiviral activity against Influenza A/California/04/2009 (H1N1)pdm09 infected in MDCK cells", "assay_type": "ADME, organism-based", "details": "in vivo"}},
  "data": [
    {"compound": "COC(=O)OCOc1c2n(ccc1=O)N([C@@H]1c3ccccc3SCc3c1ccc(F)c3F)[C@@H]1COCCN1C2=O", "note": "[BALOXAVIR MARBOXIL]", "values": [
      {"measurement": "Kel", "setting": "[1]", "result": 0.21, "unit": "h⁻¹"},
      {"measurement": "AUC", "setting": "[2]", "result": 1390, "unit": "ng·h/g"},
      {"measurement": "AUC", "setting": "[3]", "result": 85348, "unit": "ng·h/g"},
      {"measurement": "Kel", "setting": "[4]", "result": 0.21, "unit": "h⁻¹"},
      {"measurement": "MRTlast", "setting": "[5]", "result": 4.27, "unit": "h"},
      {"measurement": "Ratio AUC", "setting": "[6]", "result": 46.8},
      {"measurement": "MRTlast", "setting": "[7]", "result": 4.84, "unit": "h"},
      {"measurement": "t1/2", "setting": "[8]", "result": 3.4, "unit": "h"},
      {"measurement": "Tmax", "setting": "[9]", "result": 2, "unit": "h"},
      {"measurement": "Ratio AUC", "setting": "[10]", "result": 21.1},
      {"measurement": "AUClast", "setting": "[11]", "result": 105778, "unit": "ng·h/g"},
      {"measurement": "MRTlast", "setting": "[12]", "result": 1.58, "unit": "h"},
      {"measurement": "AUClast", "setting": "[13]", "result": 317, "unit": "ng·h/g"},
      {"measurement": "t1/2", "setting": "[14]", "result": 3.51, "unit": "h"},
      {"measurement": "Tmax", "setting": "[15]", "result": 2, "unit": "h"}
    ]},
    {"compound": "COC(=O)OCOc1c2n(ccc1=O)N(C(c1ccccc1)c1ccccc1)[C@@H]1COCCN1C2=O", "values": [
      {"measurement": "CC50", "setting": "[16]", "result": 100, "unit": "µM"},
      {"measurement": "CC50 at 24 h", "setting": "[17]", "result": 57, "unit": "µM"},
      {"measurement": "selectivity ratio at 24 h", "setting": "[18]", "result": 0.9},
      {"measurement": "Activity", "setting": "[19]", "result": "Non-Toxic"},
      {"measurement": "Activity", "setting": "[20]", "result": "Non-Toxic"},
      {"measurement": "AUClast", "setting": "[21]", "result": 11923, "unit": "ng·h/g"},
      {"measurement": "Tmax", "setting": "[22]", "result": 0.5, "unit": "h"},
      {"measurement": "MRTlast", "setting": "[23]", "result": 2.31, "unit": "h"},
      {"measurement": "AUC", "setting": "[24]", "result": 11444, "unit": "ng·h/g"},
      {"measurement": "Kel", "setting": "[25]", "result": 0.14, "unit": "h⁻¹"},
      {"measurement": "AUC", "setting": "[26]", "result": 10875, "unit": "ng·h/g"},
      {"measurement": "Ratio AUC", "setting": "[27]", "result": 13.3},
      {"measurement": "Kel", "setting": "[28]", "result": 0.08, "unit": "h⁻¹"},
      {"measurement": "remaining at 4 h, 1 µM", "setting": "[29]", "result": 0, "unit": "%"},
      {"measurement": "Ratio", "setting": "[30]", "result": 18}
    ]}
  ]
}
